Results as given in publication PMC10871122, “Synthesis and In Vitro Evaluation as Potential Anticancer and Antioxidant Agents of Diphenylamine-Pyrrolidin-2-one-Hydrazone Derivatives” (International Journal of Molecular Sciences, 2023).

Columns and labels:
[1] = tested on: human melanoma IGR39 cell line; experiment: MTT cell viability assay, melanoma IGR39; format: cell-based; conditions: 100 µM, 72 h, MTT
Source text: (§1) The human malignant melanoma cell line IGR39, human triple-negative breast cancer MDA-MB-231, and human pancreatic carcinoma cell line Panc-1 were obtained from the American Type Culture Collection (ATCC, Manassas, VA, USA). Human foreskin fibroblasts (HF) CRL-4001 were originally obtained from ATCC and kindly provided by Prof. Helder Santos (University of Helsinki, Finland). Primary prostate carcinoma PPC-1 cell line was kindly provided by Prof. Tambet Teesalu (University of Tartu, Estonia). All cell lines were cultured in Dulbecco’s Modified Eagle’s GlutaMAX medium (Gibco (Carlsbad, CA, USA)), supplemented with 10,000 U/mL penicillin, 10 mg/mL streptomycin (Gibco), and 10% fetal bovine serum (Gibco). Cell cultures were grown at 37 °C in a humidified atmosphere containing 5% CO2. They were used until the passage of 20.
(§2) The effect of synthesized compounds on cell viability was studied using 3-(4,5-dimethylthiazol-2-yl)-2,5-diphenyltetrazolium bromide (MTT; Sigma-Aldrich Co., St Louis, MO, USA) assay, as described elsewhere. To summarize, the cells were seeded in triplicates in 96-well Corning plates (IGR39, MDA-MB-231, Panc-1 and PPC1: 4 × 10^3 cells/well; HF: 5 × 10^3 cells/well). The cells were treated with 100 μM of tested compounds after 24 h of incubation. After 72 h, the MTT reagent was added and the formazan crystals that had formed were dissolved in DMSO (Sigma-Aldrich Co., St. Louis, MO, USA). The absorbance was determined with a multidetection microplate reader at 570 and 630 nm.
(§3) The compound serial dilutions ranging from 50 µM to 1.56 µM were introduced to the cells. The Hill equation was used to calculate the EC50 value, or the concentration of a compound that results in a 50% reduction in the metabolic activity of cells.

[2] = Ferric reducing antioxidant power (FRAP) assay; conditions: for reducing power activity compared to the control antioxidant: vs protocatechuic acid; for FRAP reducing power (Fe^2+): absorbance at 593 nm
Source text: The ferric reducing antioxidant power (FRAP) assay was used to evaluate the antioxidant potential of new compounds 2–17. Antioxidant assays are based on determining reduction power reactions (e.g., reduction Fe^3+ to Fe^2+) or scavenging free radicals (DPPH, ABTS). The FRAP assay is based on the method of single electron transfer (SET), measuring the reduction in the complex of ferric ions (Fe^3+)-ligand to the blue ferrous complex (Fe^2+). This method uses 2,4,6-tripyridyl-s-triazine (TPTZ) as the linking ligand to the iron. The antioxidant activity of the synthesized compounds was compared with that of the well-known antioxidant protocatechuic acid. […] PCA is a building block for pharmaceuticals and is widely used to produce many medicinal products such as veratridine (sodium channel inactivation inhibitor), erlotinib (antineoplastic), Picatin II (treatment of hepatitis B), itopride hydrochloride (gastrointestinal motility drug). PCA can also cause the induction of apoptosis of human leukemia cells. Moreover, the antioxidant activity of PCA is based on the reduction in free radical formation via the up-regulation of genes encoding enzymes with neutralizing activities.
Antioxidant activity was determined as an increase in absorbance at 593 nm, and the results were expressed as of Fe^2+ μmol/L and in relation to antioxidants, and protocatechuic acid, as positive control. The FRAP reagent contained 2.5 mL of 10 mM TPTZ solution in 40 mM HCl as well as 2.5 mL of FeCl3 (20 mM) and 25 mL of acetate buffer (0.3 M, pH = 3.6). Then, 100 μL of analyzed compounds (20 mM) were mixed with 3 mL of the FRAP reagent. The absorbance of the reaction mixture was measured spectrophotometrically at 593 nm using a UV-1280 UV-VIS spectrophotometer (Shimadzu Corporation, Kyoto, Japan). To compose the calibration curve, five concentrations of FeSO4·7H2O (5, 10, 15, 20, 25 μM) were used, and the absorbance was measured as a sample solution.

[3] = tested on: human foreskin fibroblasts (HF) CRL-4001; experiment: MTT cell viability assay, fibroblasts; format: cell-based; conditions: 100 µM, 72 h
Source text: as §1, §2, §3

[4] = tested on: tested cancer cell lines (IGR39, PPC-1, MDA-MB-231, Panc-1); experiment: MTT cell viability assay, statements on the tested cancer cell lines together; format: cell-based, human; conditions: for selectivity against cancer cells: after determination of the dose-effect correlation; for inhibition of cancer cell viability: 100 µM, 72 h, MTT
Protocol: as §2, §3

[5] = tested on: prostate carcinoma PPC-1 cell line; experiment: MTT cell viability assay, prostate carcinoma PPC-1; format: cell-based, human; conditions: 100 µM, 72 h, MTT
Source text: as §1, §2, §3

| Compound | melting point | effect on cell viability compared among the cell lines [1] | reducing power activity compared to the control antioxidant [2] | effect on fibroblasts compared to cancer cell lines [3] | selectivity against cancer cells [4] | FRAP reducing power (Fe^2+) [2] | effect on cell viability compared among the cell lines [5] | inhibition of cancer cell viability [4] | antioxidant activity (FRAP) relative to protocatechuic acid [2] |
| --- | --- | --- | --- | --- | --- | --- | --- | --- | --- |
| O=C(NN=Cc1ccccc1)C1CC(=O)N(c2ccc(Nc3ccccc3)cc2)C1 (stereo not shown) [Compound 2, N′-benzylidene-5-oxo-1-(4-(phenylamino)phenyl)pyrrolidine-3-carbohydrazide] | 122 to 123 °C | strongest effect on melanoma cells | higher than those of known antioxidants used as the controls | affected fibroblasts more than the tested cancer cell lines |  |  |  |  |  |
| O=C(NN=Cc1ccc(Br)cc1)C1CC(=O)N(c2ccc(Nc3ccccc3)cc2)C1 (stereo not shown) [Compound 3, N′-(4-bromobenzylidene)-5-oxo-1-(4-(phenylamino)phenyl)pyrrolidine-3-carbohydrazide] | 198 to 199 °C | strongest effect on melanoma cells | higher than those of known antioxidants used as the controls |  | nonselective against cancer cells | 120.08 µmol/L |  |  |  |
| O=C(NN=Cc1ccc(Cl)cc1)C1CC(=O)N(c2ccc(Nc3ccccc3)cc2)C1 (stereo not shown) [Compound 4, N′-(4-chlorobenzylidene)-5-oxo-1-(4-(phenylamino)phenyl)pyrrolidine-3-carbohydrazide] | 209 to 210 °C |  |  |  | nonselective against cancer cells |  | most active against the prostate carcinoma cell line |  |  |
| CN(C)c1ccc(C=NNC(=O)C2CC(=O)N(c3ccc(Nc4ccccc4)cc3)C2)cc1 (stereo not shown) [Compound 7, N′-(4-(dimethylamino)benzylidene)-5-oxo-1-(4-(phenylamino)phenyl)pyrrolidine-3-carbohydrazide] | 218 to 219 °C |  | higher than those of known antioxidants used as the controls | affected fibroblasts more than the tested cancer cell lines |  |  |  |  |  |
| CCN(CC)c1ccc(C=NNC(=O)C2CC(=O)N(c3ccc(Nc4ccccc4)cc3)C2)c(O)c1 (stereo not shown) [Compound 8, N′-(4-(diethylamino)-2-hydroxybenzylidene)-5-oxo-1-(4-(phenylamino)phenyl)pyrrolidine-3-carbohydrazide] | 239 to 240 °C | strongest effect on melanoma cells | higher than those of known antioxidants used as the controls | affected fibroblasts more than the tested cancer cell lines |  | 120.24 µmol/L |  |  |  |
| O=C(NN=Cc1ccccc1[N+](=O)[O-])C1CC(=O)N(c2ccc(Nc3ccccc3)cc2)C1 (stereo not shown) [Compound 9, N′-(2-nitrobenzylidene)-5-oxo-1-(4-(phenylamino)phenyl)pyrrolidine-3-carbohydrazide] | 192 to 193 °C | strongest effect on melanoma cells | higher than those of known antioxidants used as the controls |  |  | 118.32 µmol/L |  | less than 20% |  |
| CSc1ccc(C=NNC(=O)C2CC(=O)N(c3ccc(Nc4ccccc4)cc3)C2)cc1 (stereo not shown) [Compound 10, N′-(4-(methylthio)benzylidene)-5-oxo-1-(4-(phenylamino)phenyl)pyrrolidine-3-carbohydrazide] | 193 to 194 °C | strongest effect on melanoma cells |  | affected fibroblasts more than the tested cancer cell lines |  |  |  |  |  |
| O=C(NN=Cc1ccc[nH]1)C1CC(=O)N(c2ccc(Nc3ccccc3)cc2)C1 (stereo not shown) [Compound 11, N′-((1H-pyrrol-2-yl)methylene)-5-oxo-1-(4-(phenylamino)phenyl)pyrrolidine-3-carbohydrazide] | 234 to 235 °C |  |  |  |  |  | most active against the prostate carcinoma cell line | less than 20% |  |
| O=C(NN=Cc1ccc(Br)s1)C1CC(=O)N(c2ccc(Nc3ccccc3)cc2)C1 (stereo not shown) [Compound 12, N′-((5-bromothiophen-2-yl)methylene)-5-oxo-1-(4-(phenylamino)phenyl)pyrrolidine-3-carbohydrazide] | 240 to 241 °C |  | higher than those of known antioxidants used as the controls | affected fibroblasts more than the tested cancer cell lines |  |  | most active against the prostate carcinoma cell line |  |  |
| CC(=NNC(=O)C1CC(=O)N(c2ccc(Nc3ccccc3)cc2)C1)c1ccccc1 (stereo not shown) [Compound 15, 5-Oxo-1-(4-(phenylamino)phenyl)-N′-(1-phenylethylidene)pyrrolidine-3-carbohydrazide] | 225 to 226 °C | strongest effect on melanoma cells | higher than those of known antioxidants used as the controls |  |  | 123.05 µmol/L |  | less than 20% |  |
| CC(=NNC(=O)C1CC(=O)N(c2ccc(Nc3ccccc3)cc2)C1)c1ccc(N)cc1 (stereo not shown) [Compound 16, N′-(1-(4-aminophenyl)ethylidene)-5-oxo-1-(4-(phenylamino)phenyl)pyrrolidine-3-carbohydrazide] | 230 to 231 °C | strongest effect on melanoma cells | higher than those of known antioxidants used as the controls |  |  | 132.14 µmol/L |  | less than 20% | 1.2 times |
| CC(=NNC(=O)C1CC(=O)N(c2ccc(Nc3ccccc3)cc2)C1)c1cccc(N)c1 (stereo not shown) [Compound 17, N′-(1-(3-aminophenyl)ethylidene)-5-oxo-1-(4-(phenylamino)phenyl)pyrrolidine-3-carbohydrazide] | 239 to 240 °C |  | higher than those of known antioxidants used as the controls | affected fibroblasts more than the tested cancer cell lines |  | 129.28 µmol/L | most active against the prostate carcinoma cell line |  |  |
| O=C(O)c1ccc(O)c(O)c1 [protocatechuic acid, 3,4-dihydroxybenzoic acid, reference compound] |  |  |  |  |  | 109.05 µmol/L |  |  |  |
